How the values were obtained:
ALK5 = biological target: T1, ALK5 (Homo sapiens, UniProt P36897); assay: In vitro activity against ALK5 kinase (ADP-Glo Kinase Assay); assay type: biochemical; conditions: 28° C. 120 minutes
T1 construct: purchased Carna 09-141
T1 sequence (P36897 162-503 limits assumed): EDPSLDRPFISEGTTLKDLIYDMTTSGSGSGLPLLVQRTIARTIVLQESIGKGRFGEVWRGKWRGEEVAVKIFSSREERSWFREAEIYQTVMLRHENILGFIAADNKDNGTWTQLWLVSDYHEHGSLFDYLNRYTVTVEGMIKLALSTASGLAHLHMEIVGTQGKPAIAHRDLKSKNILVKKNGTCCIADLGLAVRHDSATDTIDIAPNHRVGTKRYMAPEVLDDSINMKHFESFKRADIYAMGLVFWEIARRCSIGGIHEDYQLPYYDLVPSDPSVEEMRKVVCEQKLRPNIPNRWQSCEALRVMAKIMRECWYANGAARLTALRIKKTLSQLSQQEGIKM
Protocol: For the compounds of the present disclosure prepared in the above examples, each compound was prepared into 10 mM with DMSO, and then diluted to 3.333 μM, 1.111 μM, 370 nM, 123 nM, 41 nM, 14 nM, 4.6 nM, 1.5 nM and 0.5 nM successively.
Reagents: ALK5, Cat. No. 09-141, purchased from Carna; p38α, Cat. No. 04-152, purchased from the Carna; TGFβR1 peptides, Cat. No. T36-58, purchased from SignalChem; dimethyl sulfoxide (DMSO), purchased from Sigma, US; EDTA, purchased from Sigma, US; and ADP-Glo Kinase Assay, Cat. No. v9102/3, 1×Kinase buffer (40 mM Tris, pH7.5, 0.10% BSA, 20 mM MgCl2, 1 mM DTT), purchased from Promega, and prepared immediately before use.
2.2.1.1 Preparation of 50-fold compounds: The compounds were prepared into 500 μM, 50-fold concentration as the final concentration 10 μM for detecting the compounds, which was performed as following: into a second well of a 96-well plate, 95 μl of 100% DMSO was added, and then 5 μl of the 10 mM compound solution was added, to prepare a […] compound solution; into other wells, 60 μl of 100% DMSO was added; from the second well, 30 μl of the compound was drawn out and added into a third well; such 3-fold serial dilution was continued successively until 10 dilutions of concentration were made.
The kinase was added to a 1× kinase buffer, to form a 2× enzyme solution. 2.5 μl of the 2× enzyme solution was added to a 384-well reaction plate which already contained 100 nl of 100% DMSO-dissolved compound, to incubate at room temperature for 10 minutes.
FAM labeled peptides and ATP were added to the 1× kinase buffer, to form a 2× substrate solution. 2.5 μl of the 2× substrate solution was added to the 384-well reaction plate.
The 384-well plate was incubated at 28° C. for 120 minutes.
2.5.1 An ADP-Glo reagent was equilibrated to room temperature.
2.5.2 5 μl of the reaction solution was transferred into a reaction well at another new 384-well plate.
2.5.3 5 μl of the ADP-Glo reagent was transferred into the reaction well at the 384-well plate to stop the reaction.
2.5.4 An incubation was performed at 28° C. for 120 minutes.
2.5.5 10 μl of a kinase detection reagent was transferred into each reaction well, shaken for 1 minute, and was allowed to stand for 30 minutes at room temperature.
The luminescence value of the sample was read from Envision.
2.7.1 Luminescence reading data were copied from the Envision program.
2.7.2 The values of the luminescence reading were converted into the percent inhibition by the following formula.
Percent inhibition=(max−sample RLU)/(max−min)×100, where “min” stands for the fluorescence reading of the control sample with no enzyme added to the reaction; and “max” stands for the fluorescence reading of the sample with DMSO added as a control.
2.7.3 The date were imported into MS Excel and subjected to curve fitting using XLFit excel add-in version 5.4.0.8 and a fitting formula: Y=Bottom+(Top−Bottom)/(1+(IC50/X)^HillSlope).

[1] = test system: TGFβ-ALK5-SMAD2/3 signaling pathway in Luc-Smad2/3-NIH3T3 cells; assay: In vitro cell luciferase assay in Luc-Smad2/3-NIH3T3 cells stimulated with TGFβ1; assay type: cell-based; conditions: Mus musculus; TGFβ1 4 ng/mL, 2% FBS medium, luciferase chemiluminescence
Protocol: Test compounds: For the compounds of the present disclosure prepared in the above examples, each compound was prepared into 4 mM using DMSO. Then, a 4-fold serial dilution was made to obtain 20000.00 nM, 5000.00 nM, 1250.00 nM, 312.5 nM, 78.125 nM, 19.53 nM, 4.88 nM and 1.22 nM successively.
Luc-Smad2/3-NIH3T3 mouse fibroblasts (engineered to overexpress SMAD2,3-responsive promoter) were provided by a laboratory of China Pharmaceutical University.
Reagents: DMEM, purchased from Invitrogen, US; FBS, purchased from Invitrogen, US; DMSO, purchased from Sigma, US; Glo Lysis Buffer, purchased from Progema, US; Bright-Glo Luciferase assay system, purchased from Promega, US; and TGFβ, purchased from PeproTech, US.
Instruments: MD SpectraMaX M3 multifunctional enzyme reader, purchased from Molecular Devices, US.
Cell recovery: The cells were dissolved by placing in a […] water bath, then transferred to a 15 mL of pre-warmed culture medium, and centrifuged at 1000 rpm for 5 minutes. After the culture medium was discarded, the cells were resuspend in 15 mL of fresh culture medium, transferred to a 10 cm dish, and placed in an incubator at 37° C. with 5% CO2 for culture. After 24 hours, the culture medium for the cells was changed with a fresh culture medium.
Cell passage: The recovered cells were transferred to a 50 mL sterile centrifuge tube and centrifuged at 1000 rpm for 5 minutes. The culture medium was discarded. The evenly dispersed cells was counted, and adjusted to an appropriate cell concentration of 15 mL of fresh culture medium, added to a 10 cm dish, and placed in an incubator at 37° C. with 5% CO2 for culture.
Luc-Smad2/3-NIH3T3 cells were cultured normally in a 10 cm culture dish until the confluence reached 80%-90%. After digestion, they were collected in a 15 mL centrifuge tube, centrifuged at 1000×g for 5 minutes to remove the supernatant, and resuspended with 1 mL of medium, then diluted 10 times and counted. The cells was diluted according to the results from the count, and transferred into a 96-well plate at 4×10^3/cells per well (100 μl of resuspended cells was added in each well).
1-2 mg of the drug was weighed (weighed in advance), and prepared into a 4 mM stock solution using DMSO. After 24 hours, the culture medium was removed. The drug was diluted with 2% FBS culture medium. 100 μl of the 1× drug solution was added to make the final concentration of the drug to be 20000.00 nM, 5000.00 nM, 1250.00 nM, 312.5 nM, 78.125 nM, 19.53 nM, 4.88 nM, and 1.22 nM. TGFβ1 was present in each well at a final concentration of 4 ng/mL, and diluted with 2% FBS culture medium together with the compounds.
The Glo Lysis Buffer and the Bright-glo luciferase assay system as well as the cells were equilibrated to room temperature. After the cell supernatant was removed, the cells were dissolved evenly by adding 100 μl of the Glo Lysis Buffer to each well with shaking slowly, and lysed at room temperature for 5 minutes. After that, to each well, 100 μl of the Bright-glo luciferase assay system was added to incubate the cells for 5 minute at room temperature with shaking for 2 minutes. Then, 180 μl of the supernatant was transferred to a white bottom 96-well plate to detect chemiluminescence signal. The detection condition was 1 s.
2.3 Data processing: Graphpad Prism 5 software was used to perform nonlinear curve fitting and data analysis to obtain IC50 by fitting.

Row | IC50 (ALK5) [nM] | Structure (SMILES) | IC50 [1] [nM]
1 | 120 | CC(C)(O)c1cc(Nc2ccc3c(Oc4cn(C5CC5)nc4C4CCOCC4)ccnc3c2)ccn1 [Example 1, 2-(4-((4-((1-cyclopropyl-3-(tetrahydro-2H-pyran-4-yl)-1H-pyrazol-4-yl)oxy)quinolin-7-yl)amino)pyridin-2-yl)propan-2-ol] | 200
2 | 98 | c1cc(Oc2cn(C3CC3)nc2C2CCOCC2)c2ccc(N3CCOCC3)cc2n1 [Example 2, 4-(4-((1-cyclopropyl-3-(tetrahydro-2H-pyran-4-yl)-1H-pyrazol-4-yl)oxy)quinolin-7-yl)morpholine] | 150
3 | 80 | FC(F)(F)c1nnc2n1CCN(c1ccc3c(Oc4cn(C5CC5)nc4C4CCOCC4)ccnc3c1)C2 [Example 3, 4-((1-cyclopropyl-3-(tetrahydro-2H-pyran-4-yl)-1H-pyrazol-4-yl)oxy)-7-(3-(trifluoromethyl)-5,6-dihydro-[1,2,4]triazolo[4,3-a]pyrazin-7(8H)-yl)quinoline] | 102
4 | 250 | O=S1(=O)CCN(c2ccc3c(Oc4cn(C5CC5)nc4C4CCOCC4)ccnc3c2)CC1 [Example 4, 4-(4-((1-cyclopropyl-3-(tetrahydro-2H-pyran-4-yl)-1H-pyrazol-4-yl)oxy)quinolin-7-yl)thiomorpholine-1,1-dioxide] | 140
5 | 110 | CC1(O)CCN(c2ccc3c(Oc4cn(C5CC5)nc4C4CCOCC4)ccnc3c2)CC1 [Example 5, 1-(4-((1-cyclopropyl-3-(tetrahydro-2H-pyran-4-yl)-1H-pyrazol-4-yl)oxy)quinolin-7-yl)-4-methyl piperidin-4-ol] | 133
6 | – | c1cc(Oc2cn(C3CC3)nc2C2CCOCC2)c2ccc(-c3cn[nH]c3)cc2n1 [Example 8, 4-((1-cyclopropyl-3-(tetrahydro-2H-pyran-4-yl)-1H-pyrazol-4-yl)oxy)-7-(1H-pyrazol-4-yl)quinoline] | 92
7 | – | CS(=O)(=O)n1cc(-c2ccc3c(Oc4cn(C5CC5)nc4C4CCOCC4)ccnc3c2)cn1 [Example 9, 4-((1-cyclopropyl-3-(tetrahydro-2H-pyran-4-yl)-1H-pyrazol-4-yl)oxy)-7-(1-(methylsulfonyl)-1H-pyrazol-4-yl)quinoline] | 101
8 | – | CS(=O)(=O)CCn1cc(-c2ccc3c(Oc4cn(C5CC5)nc4C4CCOCC4)ccnc3c2)cn1 [Example 10, 4-((1-cyclopropyl-3-(tetrahydro-2H-pyran-4-yl)-1H-pyrazol-4-yl)oxy)-7-(1-(2-(methylsulfonyl)ethyl)-1H-pyrazol-4-yl)quinoline] | 90
9 | – | CC(C)(O)Cn1cc(-c2ccc3c(Oc4cn(C5CC5)nc4C4CCOCC4)ccnc3c2)cn1 [Example 11, 1-(4-(4-((1-cyclopropyl-3-(tetrahydro-2H-pyran-4-yl)-1H-pyrazol-4-yl)oxy)quinolin-7-yl)-1H-pyrazol-1-yl)-2-methylpropan-2-ol] | 96
10 | – | CC(C)n1cc(-c2ccc3c(Oc4cn(C5CC5)nc4C4CCOCC4)ccnc3c2)cn1 [Example 12, 4-((1-cyclopropyl-3-(tetrahydro-2H-pyran-4-yl)-1H-pyrazol-4-yl)oxy)-7-(1-isopropyl-1H-pyrazol-4-yl)quinoline] | 77
11 | – | FC(F)(F)Cn1cc(-c2ccc3c(Oc4cn(C5CC5)nc4C4CCOCC4)ccnc3c2)cn1 [Example 13, 4-((1-cyclopropyl-3-(tetrahydro-2H-pyran-4-yl)-1H-pyrazol-4-yl)oxy)-7-(1-(2,2,2-trifluoroethyl)-1H-pyrazol-4-yl)quinoline] | 81
12 | – | Cn1cc(-c2ccc3c(Oc4cn(C5CC5)nc4-c4ccccc4)ccnc3c2)cn1 [Example 14, 4-((1-cyclopropyl-3-phenyl-1H-pyrazol-4-yl)oxy)-7-(1-methyl-1H-pyrazol-4-yl)quinoline] | 46
13 | – | NS(=O)(=O)c1ccc(-c2ccc3c(Oc4cn(C5CC5)nc4C4CCOCC4)ccnc3c2)cc1 [Example 20, 4-(4-((1-cyclopropyl-3-(tetrahydro-2H-pyran-4-yl)-1H-pyrazol-4-yl)oxy)quinolin-7-yl)benzenesulfonamide] | 75
14 | – | CS(=O)(=O)c1ccc(-c2ccc3c(Oc4cn(C5CC5)nc4C4CCOCC4)ccnc3c2)cn1 [Example 21, 4-((1-cyclopropyl-3-(tetrahydro-2H-pyran-4-yl)-1H-pyrazol-4-yl)oxy)-7-(6-(methylsulfonyl)pyridin-3-yl)quinoline] | 49
15 | – | CS(=O)(=O)N1CC=C(c2ccc3c(Oc4cn(C5CC5)nc4C4CCOCC4)ccnc3c2)CC1 [Example 22, 4-((1-cyclopropyl-3-(tetrahydro-2H-pyran-4-yl)-1H-pyrazol-4-yl)oxy)-7-(1-(methylsulfonyl)-1,2,3,6-tetrahydropyridin-4-yl)quinoline] | 56
16 | – | FC(F)(F)c1nc2n(n1)CCN(c1ccc3c(Oc4cn(C5CC5)nc4C4CCOCC4)ccnc3c1)C2 [Example 23, 4-((1-cyclopropyl-3-(tetrahydro-2H-pyran-4-yl)-1H-pyrazol-4-yl)oxy)-7-(2-(trifluoromethyl)-5,6-dihydro-[1,2,4]triazolo[1,5-a]pyrazin-7(8H)-yl)quinoline] | 200

— US20210395235A1, “COMPOUND AS TGF-beta R1 INHIBITOR AND APPLICATION THEREOF” (NANJING SANHOME PHARMACEUTICAL CO., LTD., priority 2018, published 2021)
